Data: the NIST ThermoML archive (doi:10.1016/j.jct.2012.09.017)
Numbers after ± are expanded uncertainties.

Test: activity coefficient (dimensionless); of the first substance listed, at infinite dilution; xn = mol fraction of the nth substance listed
Details: 101 kPa, Liquid, Chromatography, x1 = 0

Row | Structure (SMILES) | activity coefficient (318.15 K) | activity coefficient (323.15 K) | activity coefficient (333.15 K) | activity coefficient (343.15 K) | activity coefficient (353.15 K) | activity coefficient (363.15 K) | activity coefficient (373.15 K)
1 | FC(F)(F)C(Cl)Br (stereo not given) [1-bromo-1-chloro-2,2,2-trifluoroethane] + CCCC[N+]1(C)CCCC1.N#C[B-](C#N)(C#N)C#N | 0.842 ± 0.039 | 0.869 ± 0.04 | 0.923 ± 0.041 | 0.977 ± 0.043 | 1.03 ± 0.05 | – | –
2 | CC(C)=O [acetone] + CCCC[N+]1(C)CCCC1.O=C1O[B-]2(OC1=O)OC(=O)C(=O)O2 | – | – | 0.762 ± 0.037 | 0.767 ± 0.037 | 0.773 ± 0.037 | 0.778 ± 0.037 | 0.784 ± 0.037
3 | c1ccccc1 [benzene] + CCCC[N+]1(C)CCCC1.N#C[B-](C#N)(C#N)C#N | 0.833 ± 0.039 | 0.841 ± 0.039 | 0.858 ± 0.039 | 0.874 ± 0.04 | 0.891 ± 0.04 | – | –
4 | ClC(Cl)Cl [trichloromethane] + CCCC[N+]1(C)CCCC1.O=C1O[B-]2(OC1=O)OC(=O)C(=O)O2 | – | – | 1 ± 0.04 | 1.03 ± 0.05 | 1.06 ± 0.05 | 1.08 ± 0.05 | 1.11 ± 0.05
5 | C[N+](=O)[O-] [nitromethane] + CCCC[N+]1(C)CCCC1.O=C1O[B-]2(OC1=O)OC(=O)C(=O)O2 | – | – | 0.416 ± 0.029 | 0.423 ± 0.029 | 0.43 ± 0.029 | 0.436 ± 0.029 | 0.441 ± 0.029
6 | ClC(Cl)Cl [trichloromethane] + CCCC[N+]1(C)CCCC1.N#C[B-](C#N)(C#N)C#N | 0.609 ± 0.033 | 0.623 ± 0.033 | 0.654 ± 0.034 | 0.683 ± 0.034 | 0.711 ± 0.035 | – | –
7 | Cc1cccc(C)c1 [1,3-dimethylbenzene] + CCCC[N+]1(C)CCCC1.N#C[B-](C#N)(C#N)C#N | 1.63 ± 0.08 | 1.64 ± 0.08 | 1.66 ± 0.08 | 1.69 ± 0.08 | 1.72 ± 0.09 | – | –
8 | CC1CCCCC1 [methylcyclohexane] + CCCC[N+]1(C)CCCC1.N#C[B-](C#N)(C#N)C#N | 12.2 ± 0.6 | 11.8 ± 0.6 | 11.2 ± 0.6 | 10.6 ± 0.5 | 10.1 ± 0.5 | – | –
9 | CCC(C)=O [butanone] + CCCC[N+]1(C)CCCC1.N#C[B-](C#N)(C#N)C#N | 0.546 ± 0.031 | 0.551 ± 0.031 | 0.564 ± 0.032 | 0.575 ± 0.032 | 0.588 ± 0.032 | – | –
10 | C1CCOC1 [tetrahydrofuran] + CCCC[N+]1(C)CCCC1.N#C[B-](C#N)(C#N)C#N | 0.622 ± 0.033 | 0.632 ± 0.033 | 0.65 ± 0.034 | 0.667 ± 0.034 | 0.683 ± 0.034 | – | –
11 | C1CCOC1 [tetrahydrofuran] + CCCC[N+]1(C)CCCC1.O=C1O[B-]2(OC1=O)OC(=O)C(=O)O2 | – | – | 1.13 ± 0.05 | 1.14 ± 0.05 | 1.15 ± 0.05 | 1.15 ± 0.05 | 1.16 ± 0.05
12 | Cc1cccc(C)c1 [1,3-dimethylbenzene] + CCCC[N+]1(C)CCCC1.O=C1O[B-]2(OC1=O)OC(=O)C(=O)O2 | – | – | 3.96 ± 0.2 | 3.84 ± 0.2 | 3.73 ± 0.19 | 3.64 ± 0.19 | 3.55 ± 0.18
13 | FC(F)(F)C(Cl)Br (stereo not given) [1-bromo-1-chloro-2,2,2-trifluoroethane] + CCCC[N+]1(C)CCCC1.O=C1O[B-]2(OC1=O)OC(=O)C(=O)O2 | – | – | 1.61 ± 0.08 | 1.66 ± 0.08 | 1.72 ± 0.09 | 1.77 ± 0.09 | 1.82 ± 0.09
14 | C1CCCCC1 [cyclohexane] + CCCC[N+]1(C)CCCC1.O=C1O[B-]2(OC1=O)OC(=O)C(=O)O2 | – | – | 20.2 ± 1 | 17.9 ± 0.9 | 16.2 ± 0.8 | 14.7 ± 0.8 | 13.6 ± 0.7
15 | C[N+](=O)[O-] [nitromethane] + CCCC[N+]1(C)CCCC1.N#C[B-](C#N)(C#N)C#N | 0.427 ± 0.029 | 0.427 ± 0.029 | 0.429 ± 0.029 | 0.431 ± 0.029 | 0.433 ± 0.029 | – | –
16 | ClCCl [dichloromethane] + CCCC[N+]1(C)CCCC1.N#C[B-](C#N)(C#N)C#N | 0.536 ± 0.031 | 0.542 ± 0.031 | 0.59 ± 0.03 | 0.574 ± 0.032 | 0.59 ± 0.032 | – | –

Next, values leading:

Row | activity coefficient (318.15 K) | activity coefficient (323.15 K) | activity coefficient (333.15 K) | activity coefficient (343.15 K) | activity coefficient (353.15 K) | activity coefficient (363.15 K) | activity coefficient (373.15 K) | Structure (SMILES)
17 | 33.2 ± 1.7 | 31.8 ± 1.6 | 29.4 ± 1.5 | 27.4 ± 1.4 | 25.6 ± 1.3 | – | – | CCCCCCCC [octane] + CCCC[N+]1(C)CCCC1.N#C[B-](C#N)(C#N)C#N
18 | – | – | 1.92 ± 0.1 | 1.75 ± 0.09 | 1.61 ± 0.08 | 1.49 ± 0.07 | 1.38 ± 0.07 | CCO [ethanol] + CCCC[N+]1(C)CCCC1.O=C1O[B-]2(OC1=O)OC(=O)C(=O)O2
19 | – | – | 1.75 ± 0.09 | 1.74 ± 0.09 | 1.74 ± 0.09 | 1.73 ± 0.09 | 1.73 ± 0.09 | CCOC(C)=O [ethyl acetate] + CCCC[N+]1(C)CCCC1.O=C1O[B-]2(OC1=O)OC(=O)C(=O)O2
20 | – | – | – | – | – | 1.98 ± 0.1 | 1.83 ± 0.09 | CC(C)O [propan-2-ol] + CCCC[N+]1(C)CCCC1.O=C1O[B-]2(OC1=O)OC(=O)C(=O)O2
21 | 0.671 ± 0.034 | 0.678 ± 0.034 | 0.693 ± 0.035 | 0.708 ± 0.035 | 0.724 ± 0.036 | – | – | COC(C)=O [methyl ethanoate] + CCCC[N+]1(C)CCCC1.N#C[B-](C#N)(C#N)C#N
22 | – | – | 88.8 ± 4.6 | 77.7 ± 4 | 69.3 ± 3.6 | 61.9 ± 3.2 | 56.1 ± 2.9 | CCCCCCCC [octane] + CCCC[N+]1(C)CCCC1.O=C1O[B-]2(OC1=O)OC(=O)C(=O)O2
23 | – | – | 62.9 ± 3.3 | 55.4 ± 2.9 | 49.5 ± 2.6 | 44.7 ± 2.3 | 40.8 ± 2.1 | CCCCCCC [heptane] + CCCC[N+]1(C)CCCC1.O=C1O[B-]2(OC1=O)OC(=O)C(=O)O2
24 | 17.6 ± 0.9 | 17 ± 0.9 | 15.8 ± 0.8 | 14.8 ± 0.8 | 13.9 ± 0.7 | – | – | CCC1CCCCC1 [ethylcyclohexane] + CCCC[N+]1(C)CCCC1.N#C[B-](C#N)(C#N)C#N
25 | 23.2 ± 1.2 | 22.4 ± 1.2 | 20.9 ± 1.1 | 19.7 ± 1 | 18.5 ± 1 | – | – | CCCCCCC [heptane] + CCCC[N+]1(C)CCCC1.N#C[B-](C#N)(C#N)C#N
26 | 1.03 ± 0.05 | 0.992 ± 0.043 | 0.931 ± 0.042 | 0.878 ± 0.04 | 0.831 ± 0.039 | – | – | CO [methanol] + CCCC[N+]1(C)CCCC1.N#C[B-](C#N)(C#N)C#N
27 | 0.506 ± 0.031 | 0.524 ± 0.031 | 0.56 ± 0.032 | 0.594 ± 0.032 | 0.628 ± 0.033 | – | – | COCCOC [1,2-dimethoxyethane] + CCCC[N+]1(C)CCCC1.N#C[B-](C#N)(C#N)C#N
28 | – | – | 1.35 ± 0.06 | 1.25 ± 0.06 | 1.16 ± 0.05 | – | – | CC(C)O [propan-2-ol] + CCCC[N+]1(C)CCCC1.N#C[B-](C#N)(C#N)C#N
